Common to all, as to assay: NCI tumour cell line growth inhibition, 48 h
In assay [1] the test system is NCI/ADR-RES.
For assay [2], the system named is SK-OV-3.
In assay [3] the test system is HOP-62.
Assay [4] concerns UO-31.
Assay [5] has as its system HCC 2998.
Assay [6] relates to NCI-H460.
For assay [7], the system named is PC-3.
Assay [8] relates to SK-MEL-2.
In assay [9] the test system is UACC-62.
The test system of assay [10] is OVCAR-5.
Assay [11] deals with SNB-75.
Assay [12] concerns CCRF-CEM.
Assay [13] has as its system SF-539.
Assay [14] relates to MCF7.
For assay [15], the system named is HCT-15.
Assay [16] has as its system HOP-92.
For assay [17], the system named is SK-MEL-5.
Assay [18] deals with BT-549.
Assay [19] deals with OVCAR-3.
The test system of assay [20] is Malme-3M.

SMILES strings stand for the structures.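 Growth conditions: 96-well plates. Treatment: test compound, 48 hours, 5 concentrations. Analysis: linear interpolation between bracketing concentrations; unreached endpoints set to highest concentration. At the GI50, growth is halved.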 Calls of active or inactive are those of the source. No stated cut-off is given here; in the data, active = GI50 up to about 1.1 µM and inactive = higher. Some results are limits rather than exact numbers.

The results in this text go back to ChEMBL document CHEMBL1201862, “PubChem BioAssay data set” (2004).

In the case of `Nc1ccc(C(=O)N2CCC[C@H]2CO)c(N)c1`, the GI50 in [1], in assay [2], in [3], in assay [4], in [5] and in assay [6] was > 100 µM (inactive) in each case. Besides, the GI50 in [7], in assay [8], in assay [9], in assay [10], in [11] and in [12] was > 100 µM (inactive) throughout. Moreover, the GI50 in [13] is > 100 µM (inactive); in assay [14], > 100 µM (inactive); in assay [15] it was over 100 µM; in [16], > 100 µM (inactive); in assay [17], > 100 µM (inactive); in assay [18], > 100 µM (inactive). In addition, the GI50 in assay [19] is > 100 µM (inactive).

With `CCOC(=O)c1nc2ccc(C(F)(F)F)cc2nc1NCc1cc(OC)c(OC)c(OC)c1`, the GI50 in [1] was 94.8 µM (inactive); in assay [3], > 100 µM (inactive); in assay [4], 35.3 µM (inactive); in assay [5], 57.9 µM (inactive); in assay [7] it was 41.9 µM (inactive); in [8], 40.8 µM (inactive). For the same compound, the GI50 in [9] was 53.5 µM (inactive); in [10], > 100 µM (inactive); in assay [11], 29.1 µM (inactive); in assay [13], 38.6 µM (inactive); in assay [14] it was 66.5 µM (inactive); in assay [15], 48.9 µM. The GI50 is 27.7 µM (inactive) in [16], 27.7 µM (inactive) in [17], > 100 µM (inactive) in [18] and 55.5 µM (inactive) in [19].

Take `COc1ccccc1-c1nc(-c2ccccc2O)n[nH]1`: the GI50 in [1], in assay [2], in assay [3], in [4], in assay [5] and in [6] was > 100 µM (inactive) each time. Also, the GI50 in assay [7], in assay [8], in assay [9], in assay [10], in [11] and in assay [12] was > 100 µM (inactive) in each case. Moreover, the GI50 is > 100 µM (inactive) in assay [13]; > 100 µM (inactive) in assay [14]; 45.9 µM in assay [15]; > 100 µM (inactive) in assay [16]; > 100 µM (inactive) in assay [17]; > 100 µM (inactive) in assay [18]. For the same compound, the GI50 in [19] was > 100 µM (inactive).

Regarding `CC1CCOc2ccc(cc2)/C=N\c2ccc(cc2)-c2ccc(cc2)/N=C\c2ccc(cc2)OCC1`, the GI50 in assay [1], in assay [2], in assay [4], in assay [5], in assay [6] and in assay [7] was > 100 µM (inactive) each time. For the same compound, the GI50 in assay [8] was > 100 µM (inactive); in assay [10], > 100 µM (inactive); in assay [12], > 100 µM (inactive); in assay [13] it was > 100 µM (inactive); in assay [14], > 100 µM (inactive); in [15] it was over 100 µM. The GI50 in [16], in [17], in assay [18] and in [19] was > 100 µM (inactive) in each case.

With `COc1cc([C@H]2c3[nH]c4ccccc4c3C[C@H]3COC(=O)N32)cc(OC)c1O`, the GI50 in assay [20] was 3.95 µM (inactive); in [1], 0.0667 µM (active); in [3], 0.0462 µM (active); in [4], 0.246 µM (active); in assay [5], 0.143 µM (active); in assay [6] it was 0.0312 µM (active). Further, the GI50 in [7] was 0.0378 µM (active); in [9], 0.0209 µM (active); in assay [10], 13.3 µM (inactive); in [11], 0.0324 µM (active); in assay [12] it was 0.0209 µM (active); in [13], 0.0396 µM (active). Besides, the GI50 in assay [14] is < 0.01 µM (active); in assay [15], 0.0256 µM; in assay [16], 2.27 µM (inactive); in assay [17], 0.0193 µM (active); in assay [18], 29.2 µM (inactive); in assay [19] it was < 0.01 µM (active).

For the compound `Cc1ccc(-n2nncc2[Si](C)(C)C)s1`, the GI50 in [20], in assay [1], in assay [2], in [4], in [5] and in assay [6] was > 100 µM (inactive) each time. Moreover, the GI50 in [7] was > 100 µM (inactive); in assay [8] it was > 100 µM (inactive); in assay [9] it was > 100 µM (inactive); in [10] it was > 100 µM (inactive); in assay [12], 22.6 µM (inactive); in [13], > 100 µM (inactive). Moreover, the GI50 was > 100 µM (inactive) in assay [14]; over 100 µM in assay [15]; > 100 µM (inactive) in assay [16]; > 100 µM (inactive) in assay [17]; > 100 µM (inactive) in assay [18]; > 100 µM (inactive) in assay [19].

`O=C(O)c1cccc(/C=C/c2ccccc2)c1`: the GI50 is 72.6 µM (inactive) in assay [20]; > 100 µM (inactive) in assay [1]; > 100 µM (inactive) in assay [2]; > 100 µM (inactive) in assay [3]; > 100 µM (inactive) in assay [4]; > 100 µM (inactive) in assay [6]. Further, the GI50 in assay [7], in [8], in assay [9], in assay [10], in [11] and in assay [12] was > 100 µM (inactive) each time. Also, the GI50 in assay [13] was > 100 µM (inactive); in assay [14], > 100 µM (inactive); in assay [15], over 100 µM; in assay [16], > 100 µM (inactive); in [17], > 100 µM (inactive); in assay [18], > 100 µM (inactive). In addition, the GI50 in assay [19] is > 100 µM (inactive).

As to `CCCC(=O)NC1=C(Cl)C(=O)c2ccccc2C1=O`, the GI50 in [1] is 3.32 µM (inactive); in assay [2] it was 8.67 µM (inactive); in [3], 9.23 µM (inactive); in [4], 2.96 µM (inactive); in assay [5] it was 4.22 µM (inactive); in assay [6] it was 3.64 µM (inactive). In addition, the GI50 in assay [7] is 3.23 µM (inactive); in assay [8], 2.39 µM (inactive); in assay [9], 2.32 µM (inactive); in assay [10] it was 4.59 µM (inactive); in assay [11], 5.09 µM (inactive); in assay [12], 1.32 µM (inactive). Besides, the GI50 in [13] is 2.45 µM (inactive); in assay [14] it was 2.39 µM (inactive); in [15], 1.68 µM; in [16] it was 1.82 µM (inactive); in assay [17] it was 2.67 µM (inactive); in assay [18] it was 5.43 µM (inactive). Besides, the GI50 in [19] was 2.29 µM (inactive).

For `CCOC(=O)c1[nH]cc(C)c1-c1cccn1-c1ccc(Cl)cc1[N+](=O)[O-]`, the GI50 in assay [1] was 17.5 µM (inactive); in [3] it was 18.6 µM (inactive); in [4], 15.7 µM (inactive); in [5] it was 19.4 µM (inactive); in assay [6], 18.8 µM (inactive); in assay [7], 20.1 µM (inactive). For the same compound, the GI50 in [8] was 15.9 µM (inactive); in assay [9], 18.2 µM (inactive); in assay [10], 23.2 µM (inactive); in assay [11], 19.1 µM (inactive); in assay [12], 25.6 µM (inactive); in assay [13], 19.2 µM (inactive). Besides, the GI50 was 30.7 µM (inactive) in [14]; 32.1 µM in assay [15]; 17.9 µM (inactive) in assay [16]; 14.9 µM (inactive) in assay [17]; 27.2 µM (inactive) in assay [18]; 12 µM (inactive) in assay [19].

With `CN1C(=O)[C@@H]2N(CSC2(C)C)C1=S`, the GI50 in [1], in assay [2], in assay [3], in [4], in assay [5] and in assay [6] was > 100 µM (inactive) in each case. Besides, the GI50 in assay [7], in assay [8], in assay [9], in assay [10], in [11] and in assay [13] was > 100 µM (inactive) in each case. In addition, the GI50 in assay [14] was > 100 µM (inactive); in assay [15], over 100 µM; in assay [16] it was 98.6 µM (inactive); in assay [17], 4.47 µM (inactive); in assay [18], > 100 µM (inactive); in assay [19], > 100 µM (inactive).

On to `CC(C)=CCc1[nH]c2ccccc2c1C1=C(O)C(=O)C(c2c(CC=C(C)C)[nH]c3ccccc23)=C(O)C1=O`, for which the GI50 in [20] was 0.628 µM (active); in [1], 2.7 µM (inactive); in [2], 2.11 µM (inactive); in [3], 0.815 µM (active); in assay [4], 1.49 µM (inactive); in assay [5] it was 1.01 µM (active). Besides, the GI50 in [6] is 1.34 µM (inactive); in [7], 1.83 µM (inactive); in assay [8] it was 1.64 µM (inactive); in assay [9], 0.377 µM (active); in assay [10] it was 2.89 µM (inactive); in assay [11] it was 0.604 µM (active). Moreover, the GI50 in [12] was 1.03 µM (active); in assay [14] it was 2.26 µM (inactive); in assay [15], 1.33 µM; in assay [16], 1.12 µM (inactive); in assay [17], 1.76 µM (inactive); in [18] it was 0.419 µM (active). Further, the GI50 in [19] is 1.48 µM (inactive).
